Results reported in patent publication US9138389B2, “Use of a jasmonic acid compound for treating greasy skin” (L'OREAL, priority 2009, dated 2015).

Tested on: greasy skin
Assay: in vivo panel test with a cosmetic composition on greasy skin
Details: cosmetic composition comprising the compound

CCCCCC1C(O)CCC1CC(=O)O (stereo not shown) [3-hydroxy-2-pentylcyclopentaneacetic acid]
efficacy for treating greasy skin: revealed the efficacy of the compound for treating greasy skin
